Source: the NIST ThermoML archive (doi:10.1021/je7001013)
Numbers after ± are expanded uncertainties.

Key:
[1] = refractive index (Na D-line) (dimensionless); details: 101.33 kPa, Liquid
[2] = xn = mol fraction of the nth substance listed
[3] = refractive index (Na D-line) (dimensionless); xn = mol fraction of the nth substance listed; details: 101 kPa, Liquid

CC[S+]([O-])CC [diethyl sulfoxide]
Details	surface tension liquid-gas [mN/m]
298.15 K	34.6 ± 1.9
303.15 K	34.1 ± 1.9
308.15 K	33.7 ± 1.9
313.15 K	33.2 ± 1.9
318.15 K	32.7 ± 1.8
323.15 K	32.4 ± 1.8
328.15 K	32 ± 1.8

[1]
Details	refractive index
298.15 K	1.468 ± 0.0016
303.15 K	1.466 ± 0.0016
308.15 K	1.464 ± 0.0016

CCCS(=O)CCC [dipropyl sulfoxide]
Details	surface tension liquid-gas [mN/m]
298.15 K	32.6 ± 1.8
303.15 K	32 ± 1.8
308.15 K	31.5 ± 1.8
313.15 K	31 ± 1.8
318.15 K	30.5 ± 1.8
323.15 K	29.9 ± 1.7
328.15 K	29.4 ± 1.7

[1]
Details	refractive index
298.15 K	1.4595 ± 0.0015
303.15 K	1.458 ± 0.0016
308.15 K	1.456 ± 0.0016

CC(C)S(=O)C(C)C [2,2'-sulfinylbispropane] + O
Details	refractive index, [3]	surface tension liquid-gas, [2] [mN/m]
298.15 K, x1 = 0.0087	1.3435 ± 0.0015	52.5 ± 2.6
298.15 K, x1 = 0.0197	1.353 ± 0.0015	48.8 ± 2.4
298.15 K, x1 = 0.0505	1.38 ± 0.0016	–
298.15 K, x1 = 0.0987	1.407 ± 0.0015	–
298.15 K, x1 = 0.4035	1.453 ± 0.0021	35.9 ± 2
298.15 K, x1 = 0.6002	1.46 ± 0.0015	33.9 ± 1.9
298.15 K, x1 = 0.7756	1.4625 ± 0.0015	32.6 ± 1.8
298.15 K, x1 = 0.8899	1.4635 ± 0.0015	32.2 ± 1.8
303.15 K, x1 = 0.0087	1.343 ± 0.0015	52.4 ± 2.6
303.15 K, x1 = 0.0197	1.352 ± 0.0015	48.1 ± 2.4
303.15 K, x1 = 0.0505	1.3785 ± 0.0015	42.9 ± 2.2
303.15 K, x1 = 0.0987	1.406 ± 0.0015	–
303.15 K, x1 = 0.4035	1.451 ± 0.0016	34.6 ± 1.9
303.15 K, x1 = 0.6002	1.4575 ± 0.0016	33.3 ± 1.9
303.15 K, x1 = 0.7756	1.461 ± 0.0016	32.1 ± 1.8
303.15 K, x1 = 0.8899	1.4625 ± 0.0015	31.7 ± 1.8
308.15 K, x1 = 0.0087	1.342 ± 0.0015	51.5 ± 2.5
308.15 K, x1 = 0.0197	1.3515 ± 0.0015	47.3 ± 2.4
308.15 K, x1 = 0.0505	1.3775 ± 0.0018	41.8 ± 2.2
308.15 K, x1 = 0.0987	1.404 ± 0.0016	35.1 ± 1.9
308.15 K, x1 = 0.4035	1.448 ± 0.0027	34.1 ± 1.9
308.15 K, x1 = 0.6002	1.456 ± 0.0016	32.7 ± 1.8
308.15 K, x1 = 0.7756	1.459 ± 0.0016	31.5 ± 1.8
308.15 K, x1 = 0.8899	1.4605 ± 0.0016	31.1 ± 1.8
313.15 K, x1 = 0.0087	–	50.6 ± 2.5
313.15 K, x1 = 0.0197	–	46.6 ± 2.4
313.15 K, x1 = 0.0505	–	41.2 ± 2.2
313.15 K, x1 = 0.0987	–	36 ± 2
313.15 K, x1 = 0.4035	–	33.4 ± 1.9
313.15 K, x1 = 0.6002	–	32.1 ± 1.8
313.15 K, x1 = 0.7756	–	30.9 ± 1.8
313.15 K, x1 = 0.8899	–	30.6 ± 1.8
318.15 K, x1 = 0.0087	–	49.8 ± 2.5
318.15 K, x1 = 0.0197	–	45.8 ± 2.3
318.15 K, x1 = 0.0505	–	40.6 ± 2.1
318.15 K, x1 = 0.0987	–	37 ± 2
318.15 K, x1 = 0.4035	–	32.8 ± 1.8
318.15 K, x1 = 0.6002	–	31.5 ± 1.8
318.15 K, x1 = 0.7756	–	30.3 ± 1.7
318.15 K, x1 = 0.8899	–	30 ± 1.7
323.15 K, x1 = 0.0087	–	48.9 ± 2.4
323.15 K, x1 = 0.0197	–	45 ± 2.3
323.15 K, x1 = 0.0505	–	39.9 ± 2.1
323.15 K, x1 = 0.0987	–	36.7 ± 2
323.15 K, x1 = 0.4035	–	31.8 ± 1.8
323.15 K, x1 = 0.6002	–	30.4 ± 1.8
323.15 K, x1 = 0.7756	–	29.8 ± 1.7
323.15 K, x1 = 0.8899	–	29.5 ± 1.7
328.15 K, x1 = 0.0087	–	48 ± 2.4
328.15 K, x1 = 0.0197	–	43.7 ± 2.2
328.15 K, x1 = 0.0505	–	39.7 ± 2.1
328.15 K, x1 = 0.0987	–	36.4 ± 2
328.15 K, x1 = 0.4035	–	31 ± 1.8
328.15 K, x1 = 0.6002	–	29.8 ± 1.7
328.15 K, x1 = 0.7756	–	29.3 ± 1.7
328.15 K, x1 = 0.8899	–	28.9 ± 1.7

CC(C)S(=O)C(C)C [2,2'-sulfinylbispropane]
Details	surface tension liquid-gas [mN/m]
298.15 K	31.8 ± 1.8
303.15 K	31.2 ± 1.8
308.15 K	30.7 ± 1.8
313.15 K	30.3 ± 1.7
318.15 K	29.8 ± 1.7
323.15 K	29.5 ± 1.7
328.15 K	29.1 ± 1.7

[1]
Details	refractive index
298.15 K	1.4645 ± 0.0016
303.15 K	1.462 ± 0.0016
308.15 K	1.4595 ± 0.0016
